Test results published in patent US20250122174A1 (Shenzhen Yuanli Shenwan Innovative Medicine Co., Ltd., priority 2022, published 2025).

Molecular target: HPK1 (Homo sapiens (Human), UniProt Q92918)
Test: HPK1 Inhibition Assay (ADP-Glo kinase assay)
Format: biochemical
Details: ATP 10 μM
Procedure, shortened: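 ADP-Glo luminescence read-out after 1 h room-temperature kinase reaction with 10 μM ATP and 0.1 μg/ml MBP. Recombinant human HPK1 at 7.5 ng/μl; buffer 40 mM Tris pH 7.5, 20 mM MgCl2. Compounds serially diluted 5-fold over 10 points from 10 mM DMSO stock.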

Chain of HPK1 (Q92918 1-346 limits assumed): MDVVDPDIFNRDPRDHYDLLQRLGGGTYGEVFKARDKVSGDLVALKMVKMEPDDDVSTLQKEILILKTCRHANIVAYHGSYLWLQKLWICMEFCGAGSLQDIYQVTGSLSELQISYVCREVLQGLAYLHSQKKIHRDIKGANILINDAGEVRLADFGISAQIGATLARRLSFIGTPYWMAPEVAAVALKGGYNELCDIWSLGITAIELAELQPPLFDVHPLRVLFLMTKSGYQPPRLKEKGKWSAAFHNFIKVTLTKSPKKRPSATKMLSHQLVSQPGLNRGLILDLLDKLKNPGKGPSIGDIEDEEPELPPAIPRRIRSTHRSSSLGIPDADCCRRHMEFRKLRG

SMILES	IC50 [nM]
CC(C)n1ncc2c(N3C[C@H](N)C(C)(C)C3)c(NC(=O)c3ccc(=O)n(-c4c(F)cccc4F)n3)ccc21 [Example 186, (R)-N-(4-(4-amino-3,3-dimethylpyrrolidin-1-yl)-1-isopropyl-1H-indazol-5-yl)-1-(2,6-difluorophenyl)-6-oxo-1,6-dihydropyridazine-3-carboxamide]	< 100
CC(C)n1ncc2c(N3C[C@@H](N)C(C)(C)C3)c(NC(=O)c3ccc(=O)n(-c4c(F)cccc4F)n3)ccc21 [Example 187, (S)-N-(4-(4-amino-3,3-dimethylpyrrolidin-1-yl)-1-isopropyl-1H-indazol-5-yl)-1-(2,6-difluorophenyl)-6-oxo-1,6-dihydropyridazine-3-carboxamide]	< 100
CC(C)n1ncc2c(N3CC[C@@H](N)C3)c(NC(=O)c3ccc(=O)n(-c4c(F)cccc4F)n3)cc(F)c21 [Example 188, (R)-N-(4-(3-aminopyrrolidin-1-yl)-7-fluoro-1-isopropyl-1H-indazol-5-yl)-1-(2,6-difluorophenyl)-6-oxo-1,6-dihydropyridazine-3-carboxamide]	< 100
CC(C)n1ncc2c(N3C[C@H](N)C4(CC4)C3)c(NC(=O)c3ccc(=O)n(-c4c(F)cccc4F)n3)cc(F)c21 [Example 189, (R)-N-(4-(7-amino-5-azaspiro[2.4]heptan-5-yl)-7-fluoro-1-isopropyl-1H-indazol-5-yl)-1-(2,6-difluorophenyl)-6-oxo-1,6-dihydropyridazine-3-carboxamide]	< 100
CC(C)n1nc(Cl)c2c(N3CC[C@@H](N)C3)c(NC(=O)c3ccc(=O)n(-c4c(F)cccc4F)n3)cc(F)c21 [Example 190, (R)-N-(4-(3-aminopyrrolidin-1-yl)-3-chloro-7-fluoro-1-isopropyl-1H-indazol-5-yl)-1-(2,6-difluorophenyl)-6-oxo-1,6-dihydropyridazine-3-carboxamide]	< 100
CC(C)n1nc(Cl)c2c(N3C[C@@H](C)[C@@H](N)C3)c(NC(=O)c3ccc(=O)n(-c4c(F)cccc4F)n3)ccc21 [Example 191, N-(4-((3R,4R)-3-amino-4-methylpyrrolidin-1-yl)-3-chloro-1-isopropyl-1H-indazol-5-yl)-1-(2,6-difluorophenyl)-6-oxo-1,6-dihydropyridazine-3-carboxamide]	< 100
Cc1nn(C(C)C)c2ccc(NC(=O)c3ccc(=O)n(-c4c(F)cccc4F)n3)c(N3C[C@@H](C)[C@@H](N)C3)c12 [Example 192, N-(4-((3R,4R)-3-amino-4-methylpyrrolidin-1-yl)-1-isopropyl-3-methyl-1H-indazol-5-yl)-1-(2,6-difluorophenyl)-6-oxo-1,6-dihydropyridazine-3-carboxamide]	< 100
CC(C)n1ncc2c(N3C[C@@H](C)[C@@H](N)C3)c(NC(=O)c3ccc(=O)n(-c4c(F)cccc4F)n3)cc(F)c21 [Example 193, N-(4-((3R,4R)-3-amino-4-methylpyrrolidin-1-yl)-7-fluoro-1-isopropyl-1H-indazol-5-yl)-1-(2,6-difluorophenyl)-6-oxo-1,6-dihydropyridazine-3-carboxamide]	< 100
CC(C)n1ncc2c(N3C[C@@H]4NCCO[C@H]4C3)c(NC(=O)c3ccc(=O)n(-c4c(F)cccc4F)n3)ccc21 [Example 194, 1-(2,6-difluorophenyl)-N-(4-((4aS,7aS)-hexahydropyrrolo[3,4-b][1,4]oxazin-6(2H)-yl)-1-isopropyl-1H-indazol-5-yl)-6-oxo-1,6-dihydropyridazine-3-carboxamide]	< 100
Cc1nn(C(C)C)c2ccc(NC(=O)c3ccc(=O)n(-c4c(F)cccc4F)n3)c(N3CC[C@@H](N)C3)c12 [Example 195, (R)-N-(4-(3-aminopyrrolidin-1-yl)-1-isopropyl-3-methyl-1H-indazol-5-yl)-1-(2,6-difluorophenyl)-6-oxo-1,6-dihydropyridazine-3-carboxamide]	< 100
CC(C)n1nc(F)c2c(N3C[C@@H](C)[C@@H](N)C3)c(NC(=O)c3ccc(=O)n(-c4c(F)cccc4F)n3)ccc21 [Example 198, N-(4-((3R,4R)-3-amino-4-methylpyrrolidin-1-yl)-3-fluoro-1-isopropyl-1H-indazol-5-yl)-1-(2,6-difluorophenyl)-6-oxo-1,6-dihydropyridazine-3-carboxamide]	< 100
CC(C)n1nc(F)c2c(N3C[C@H](N)C4(CC4)C3)c(NC(=O)c3ccc(=O)n(-c4c(F)cccc4F)n3)ccc21 [Example 199, (R)-N-(4-(7-amino-5-azaspiro[2.4]heptan-5-yl)-3-fluoro-1-isopropyl-1H-indazol-5-yl)-1-(2,6-difluorophenyl)-6-oxo-1,6-dihydropyridazine-3-carboxamide]	100 to 1000
CO[C@@H]1CN(c2c(NC(=O)c3ccc(=O)n(-c4c(F)cccc4F)n3)ccc3c2cnn3C(C)C)C[C@H]1N [Example 201, N-(4-((35,4S)-3-amino-4-methoxypyrrolidin-1-yl)-1-isopropyl-1H-indazol-5-yl)-1-(2,6-difluorophenyl)-6-oxo-1,6-dihydropyridazine-3-carboxamide]	< 100
Cc1nn(C(C)C)c2ccc(NC(=O)c3ccc(=O)n(-c4c(F)cccc4F)n3)c(N3C[C@H](N)C4(CC4)C3)c12 [Example 202, (R)-N-(4-(7-amino-5-azaspiro[2.4]heptan-5-yl)-1-isopropyl-3-methyl-1H-indazol-5-yl)-1-(2,6-difluorophenyl)-6-oxo-1,6-dihydropyridazine-3-carboxamide]	< 100
CC[C@H]1CN(c2c(NC(=O)c3ccc(=O)n(-c4c(F)cccc4F)n3)cc(F)c3c2cnn3C(C)C)C[C@H]1N [Example 203, N-(4-((35,4S)-3-amino-4-ethylpyrrolidin-1-yl)-7-fluoro-1-isopropyl-1H-indazol-5-yl)-1-(2,6-difluorophenyl)-6-oxo-1,6-dihydropyridazine-3-carboxamide]	< 100
CC(C)n1ncc2c(N3CC[C@@H](CN)C3)c(NC(=O)c3ccc(=O)n(-c4c(F)cccc4F)n3)cc(F)c21 [Example 204, (S)-N-(4-(3-(aminomethyl)pyrrolidin-1-yl)-7-fluoro-1-isopropyl-1H-indazol-5-yl)-1-(2,6-difluorophenyl)-6-oxo-1,6-dihydropyridazine-3-carboxamide]	< 100
CO[C@H]1CN(c2c(NC(=O)c3ccc(=O)n(-c4c(F)cccc4F)n3)ccc3c2cnn3C(C)C)C[C@H]1N [Example 205, N-(4-((3R,4S)-3-amino-4-methoxypyrrolidin-1-yl)-1-isopropyl-1H-indazol-5-yl)-1-(2,6-difluorophenyl)-6-oxo-1,6-dihydropyridazine-3-carboxamide]	< 100
CC(C)n1ncc2c(N3CC(N)C4(COC4)C3)c(NC(=O)c3ccc(=O)n(-c4c(F)cccc4F)n3)ccc21 (centres unmarked) [Example 206, N-(4-(8-amino-2-oxa-6-azaspiro[3.4]octan-6-yl)-1-isopropyl-1H-indazol-5-yl)-1-(2,6-difluorophenyl)-6-oxo-1,6-dihydropyridazine-3-carboxamide]	< 100
CC(C)n1ncc2c(N3CC[C@H](N)C3)c(NC(=O)c3ccc(=O)n(-c4c(F)cccc4F)n3)ccc21 [Example 207, (S)-N-(4-(3-aminopyrrolidin-1-yl)-1-isopropyl-1H-indazol-5-yl)-1-(2,6-difluorophenyl)-6-oxo-1,6-dihydropyridazine-3-carboxamide]	< 100
CC(C)n1ncc2c(N3CC[C@@](C)(N)C3)c(NC(=O)c3ccc(=O)n(-c4c(F)cccc4F)n3)ccc21 [Example 208, (R)-N-(4-(3-amino-3-methylpyrrolidin-1-yl)-1-isopropyl-1H-indazol-5-yl)-1-(2,6-difluorophenyl)-6-oxo-1,6-dihydropyridazine-3-carboxamide]	< 100
CC(C)n1ncc2c(N3C[C@H](C)[C@@H](N)C3)c(NC(=O)c3ccc(=O)n(-c4c(F)cccc4F)n3)ccc21 [Example 209, N-(4-((3R,4S)-3-amino-4-methylpyrrolidin-1-yl)-1-isopropyl-1H-indazol-5-yl)-1-(2,6-difluorophenyl)-6-oxo-1,6-dihydropyridazine-3-carboxamide]	< 100
CC(C)n1ncc2c(N3C[C@@H]4[C@@H](N)[C@@H]4C3)c(NC(=O)c3ccc(=O)n(-c4c(F)cccc4F)n3)ccc21 [Example 211, N-(4-((1R,5S,6s)-6-amino-3-azabicyclo[3.1.0]hexan-3-yl)-1-isopropyl-1H-indazol-5-yl)-1-(2,6-difluorophenyl)-6-oxo-1,6-dihydropyridazine-3-carboxamide]	< 100
CC(C)n1ncc2c(N3C[C@@H](N)C[C@H]3CO)c(NC(=O)c3ccc(=O)n(-c4c(F)cccc4F)n3)ccc21 [Example 212, N-(4-((25,4S)-4-amino-2-(hydroxymethyl)pyrrolidin-1-yl)-1-isopropyl-1H-indazol-5-yl)-1-(2,6-difluorophenyl)-6-oxo-1,6-dihydropyridazine-3-carboxamide]	< 100
CC(C)n1ncc2c(N3CC[C@@H](NCCO)C3)c(NC(=O)c3ccc(=O)n(-c4c(F)cccc4F)n3)ccc21 [Example 213, (R)-1-(2,6-difluorophenyl)-N-(4-(3-((2-hydroxyethyl)amino)pyrrolidin-1-yl)-1-isopropyl-1H-indazol-5-yl)-6-oxo-1,6-dihydropyridazine-3-carboxamide]	< 100
CC(C)n1ncc2c(N3C[C@@H](C)[C@@H](NCCO)C3)c(NC(=O)c3ccc(=O)n(-c4c(F)cccc4F)n3)ccc21 [Example 214, 1-(2,6-difluorophenyl)-N-(4-((3R,4R)-3-((2-hydroxyethyl)amino)-4-methylpyrrolidin-1-yl)-1-isopropyl-1H-indazol-5-yl)-6-oxo-1,6-dihydropyridazine-3-carboxamide]	< 100
CC(C)n1ncc2c(N3C[C@@H](C)[C@@H](N)C3)c(NC(=O)c3ccc(=O)n(-c4ccccc4F)n3)ccc21 [Example 215, N-(4-((3R,4R)-3-amino-4-methylpyrrolidin-1-yl)-1-isopropyl-1H-indazol-5-yl)-1-(2-fluorophenyl)-6-oxo-1,6-dihydropyridazine-3-carboxamide]	< 100
